Data on three compounds can be found in patent publication EP4741395A1, “NOVEL COMPOUND SENSITIVE TO NITROGEN MONOXIDE AND PHARMACEUTICAL COMPOSITION COMPRISING SAME” (Omniamed Co. Ltd, priority 2023, dated 2025).

Each structure is given as a SMILES string.

For test [1], the system named is splenocytes. Description: NO scavenging activity in Concanavalin A-treated splenocytes (Griess assay). Format: cell-based, C57BL/6 mouse. The conditions noted are these: Mus musculus, Splenocyte, Concanavalin A 5 µg/mL, 72 hours, read-out: NO Scavenging Activity (%) (Mean±SD). On the procedure:
(§1) A spleen was isolated from an 8-week-old C57BL/6 mouse, and splenocytes were isolated using a physical method.
(§2) The separated splenocytes were diluted to a concentration of 5×10^6 cells/mL in a RPMI 1640 medium including 10% FBS, 100 U/mL of penicillin and 100 µg/mL of streptomycin, and the diluted splenocytes were dispensed at 500 µL/well into a 48-well plate and 100 µL/well into a 96-well plate, and cultured for 72 hours in an incubator. The splenocytes were treated with Concanavalin A (5 µg/mL) when dispensed to induce an immune response, and herein, […] of the pharmaceutical composition including the compound according to each of the Examples was also added thereto. After 72 hours, the supernatant was collected, and the level of remaining NO was checked through a Griess assay, and calculated by the following Equation 4.

The subject of test [2] is IFN-γ. Description: IFN-γ reduction activity in Concanavalin A-treated splenocytes (quantitative ELISA). Format: cell-based, C57BL/6 mouse. The conditions noted are these: Mus musculus, Splenocyte, Concanavalin A 5 µg/mL, 72 hours, read-out: IFN-γ Reduction Activity (%) (Mean±SD). As to the method: as §1, §2
NO is one of important inflammatory mediators, and may increase the level of inflammatory cytokine. Concanavalin A (5 µg/mL), which induces an immune response in splenocytes, and the compound of each of Examples were treated in a concentration-dependent manner to check whether the level of IFN-γ, a representative inflammatory cytokine, was reduced. The supernatant was collected 72 hours after the treatment, and analyzed using a quantitative enzyme-linked immunosorbent assay (Quantitative-ELISA).
A general note: An ELISA detects its analyte on a solid surface through an enzyme-linked reagent.

The target of test [3] is JAK 1 (Homo sapiens, UniProt P23458). The experiment in a line: JAK Human TK kinase enzymatic radiometric assay (Eurofins), JAK 1. The conditions noted are these: value close to 100 indicates low JAK activity of the compound.
Chain of JAK 1 (P23458 whole entry): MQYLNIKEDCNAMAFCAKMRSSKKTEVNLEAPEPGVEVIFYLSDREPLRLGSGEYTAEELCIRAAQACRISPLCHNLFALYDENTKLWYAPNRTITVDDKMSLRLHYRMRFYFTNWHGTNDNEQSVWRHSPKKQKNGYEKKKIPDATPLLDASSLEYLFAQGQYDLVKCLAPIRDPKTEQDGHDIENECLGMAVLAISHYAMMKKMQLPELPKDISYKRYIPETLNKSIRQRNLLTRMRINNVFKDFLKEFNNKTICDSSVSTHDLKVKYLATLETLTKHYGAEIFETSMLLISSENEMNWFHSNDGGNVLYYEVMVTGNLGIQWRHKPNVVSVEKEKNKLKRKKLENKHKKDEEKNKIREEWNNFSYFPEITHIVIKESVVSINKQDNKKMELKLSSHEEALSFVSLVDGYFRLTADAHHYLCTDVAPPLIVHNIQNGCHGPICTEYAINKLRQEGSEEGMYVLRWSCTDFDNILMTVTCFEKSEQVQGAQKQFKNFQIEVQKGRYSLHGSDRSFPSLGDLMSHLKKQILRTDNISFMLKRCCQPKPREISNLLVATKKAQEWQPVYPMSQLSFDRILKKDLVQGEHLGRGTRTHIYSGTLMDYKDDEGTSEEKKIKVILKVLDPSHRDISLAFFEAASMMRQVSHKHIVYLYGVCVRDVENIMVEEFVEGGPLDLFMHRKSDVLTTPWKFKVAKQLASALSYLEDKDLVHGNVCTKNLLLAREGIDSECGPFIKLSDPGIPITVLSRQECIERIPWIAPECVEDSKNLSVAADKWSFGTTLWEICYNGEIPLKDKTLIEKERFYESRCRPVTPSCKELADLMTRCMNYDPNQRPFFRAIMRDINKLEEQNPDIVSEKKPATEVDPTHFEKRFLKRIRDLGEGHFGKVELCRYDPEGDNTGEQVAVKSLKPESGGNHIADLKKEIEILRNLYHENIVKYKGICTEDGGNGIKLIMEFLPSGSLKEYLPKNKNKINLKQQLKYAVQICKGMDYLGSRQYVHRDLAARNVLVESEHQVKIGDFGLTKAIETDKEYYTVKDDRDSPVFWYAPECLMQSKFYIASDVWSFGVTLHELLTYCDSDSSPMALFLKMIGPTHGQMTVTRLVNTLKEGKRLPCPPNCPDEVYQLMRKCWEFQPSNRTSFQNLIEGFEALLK
In test [4] the test system is Raw 264.7 cell line. The experiment in a line: NO scavenging activity in LPS-treated immune cells (Griess reagent). Format: cell-based. The conditions noted are these: Mus musculus, RAW264.7, Raw 264.7, LPS 500 ng/mL, 24 hours, read-out: NO Scavenging Activity (%) (Mean±SD). A general note: The Griess reaction detects nitrite, a stable product of nitric oxide.
For test [5], the target named is T1, JAK 2 (Homo sapiens, UniProt O60674).
T1 construct: purchased Eurofins Scientific (assay service)
T1 sequence (O60674 whole entry): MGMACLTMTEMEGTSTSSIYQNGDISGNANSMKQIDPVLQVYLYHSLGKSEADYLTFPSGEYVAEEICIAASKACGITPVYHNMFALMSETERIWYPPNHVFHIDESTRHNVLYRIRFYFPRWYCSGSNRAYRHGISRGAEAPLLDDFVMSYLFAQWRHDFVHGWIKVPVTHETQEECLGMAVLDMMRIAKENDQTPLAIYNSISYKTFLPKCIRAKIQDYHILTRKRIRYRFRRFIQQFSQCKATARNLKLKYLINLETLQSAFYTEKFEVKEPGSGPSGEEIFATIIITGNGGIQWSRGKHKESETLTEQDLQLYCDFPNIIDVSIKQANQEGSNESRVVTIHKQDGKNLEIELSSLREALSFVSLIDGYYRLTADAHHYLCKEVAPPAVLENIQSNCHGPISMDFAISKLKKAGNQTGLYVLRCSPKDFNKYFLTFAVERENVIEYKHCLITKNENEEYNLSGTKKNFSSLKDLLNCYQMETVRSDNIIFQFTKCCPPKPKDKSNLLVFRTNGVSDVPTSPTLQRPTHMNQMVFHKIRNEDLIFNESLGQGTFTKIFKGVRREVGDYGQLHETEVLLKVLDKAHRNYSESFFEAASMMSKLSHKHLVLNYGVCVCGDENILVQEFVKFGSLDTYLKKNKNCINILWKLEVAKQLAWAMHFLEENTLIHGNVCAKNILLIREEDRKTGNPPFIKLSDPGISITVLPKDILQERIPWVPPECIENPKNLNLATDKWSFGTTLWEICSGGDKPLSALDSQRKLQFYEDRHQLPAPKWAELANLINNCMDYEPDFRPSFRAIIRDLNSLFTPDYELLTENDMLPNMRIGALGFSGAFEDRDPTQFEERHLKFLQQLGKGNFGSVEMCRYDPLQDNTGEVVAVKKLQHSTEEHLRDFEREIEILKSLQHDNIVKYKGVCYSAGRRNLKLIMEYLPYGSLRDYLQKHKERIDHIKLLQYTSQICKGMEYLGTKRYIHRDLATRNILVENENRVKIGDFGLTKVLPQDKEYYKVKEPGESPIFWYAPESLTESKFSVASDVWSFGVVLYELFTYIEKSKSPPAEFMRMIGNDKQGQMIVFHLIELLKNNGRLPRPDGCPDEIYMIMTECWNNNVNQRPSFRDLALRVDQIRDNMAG
Description: JAK Human TK kinase enzymatic radiometric assay (Eurofins), JAK 2. Type of test: biochemical. On the set-up: unit not given here. The conditions noted are these: value close to 100 indicates low JAK activity of the compound. An excerpt: (§3) For the compounds of the Examples, JAK activity of each of the compounds was verified using the JAK Human TK Kinase Enzymatic Radiometric Kinase Profiler Assay service provided by Eurofins Scientific.
(§4) The activity was verified after inducing a reaction at the JAK 1, 2 and 3 active sites using radioactively labeled ATP.

The test system of test [6] is splenocytes. Description: Inhibitory activity on cell proliferation in splenocytes (CCK-8 analysis). Format: cell-based, C57BL/6 mouse. Particulars: Mus musculus, Splenocyte, Concanavalin A 5 µg/mL, 72 hours, read-out: Inhibitory Activity on Cell Proliferation (%) (Mean±SD).
For test [7], the target named is T2, JAK 3 (Homo sapiens, UniProt P52333).
T2 construct: purchased Eurofins Scientific (assay service)
T2 sequence (P52333 1-1124): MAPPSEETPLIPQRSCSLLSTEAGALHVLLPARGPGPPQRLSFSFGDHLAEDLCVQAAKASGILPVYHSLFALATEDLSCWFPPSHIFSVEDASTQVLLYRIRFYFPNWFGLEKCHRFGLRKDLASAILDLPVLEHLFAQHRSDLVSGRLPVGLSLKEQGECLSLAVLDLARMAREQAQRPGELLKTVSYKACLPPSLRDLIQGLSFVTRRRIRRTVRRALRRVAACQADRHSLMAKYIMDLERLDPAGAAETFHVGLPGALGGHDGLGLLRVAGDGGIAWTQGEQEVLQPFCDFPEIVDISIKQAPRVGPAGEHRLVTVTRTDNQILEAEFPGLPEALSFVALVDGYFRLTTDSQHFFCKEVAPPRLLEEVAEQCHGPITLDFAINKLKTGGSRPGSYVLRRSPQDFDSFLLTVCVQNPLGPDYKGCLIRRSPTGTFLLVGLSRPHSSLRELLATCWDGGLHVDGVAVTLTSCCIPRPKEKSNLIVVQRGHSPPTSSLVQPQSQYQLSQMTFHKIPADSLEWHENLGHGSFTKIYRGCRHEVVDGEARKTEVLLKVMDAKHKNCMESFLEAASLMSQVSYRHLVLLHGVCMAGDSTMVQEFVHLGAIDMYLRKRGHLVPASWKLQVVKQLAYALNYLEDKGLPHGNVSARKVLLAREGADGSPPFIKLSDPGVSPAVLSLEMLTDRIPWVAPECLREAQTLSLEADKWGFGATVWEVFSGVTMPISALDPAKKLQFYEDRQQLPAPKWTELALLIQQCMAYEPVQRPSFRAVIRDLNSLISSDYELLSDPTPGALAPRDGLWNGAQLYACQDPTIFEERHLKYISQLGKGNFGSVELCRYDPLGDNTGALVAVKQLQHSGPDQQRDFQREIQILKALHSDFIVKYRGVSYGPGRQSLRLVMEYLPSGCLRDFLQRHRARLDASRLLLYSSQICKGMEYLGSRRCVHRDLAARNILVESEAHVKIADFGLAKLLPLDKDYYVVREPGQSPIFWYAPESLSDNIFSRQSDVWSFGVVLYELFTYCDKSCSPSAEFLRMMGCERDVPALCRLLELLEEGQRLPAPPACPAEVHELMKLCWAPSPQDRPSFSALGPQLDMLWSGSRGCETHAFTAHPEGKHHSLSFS
Description: JAK Human TK kinase enzymatic radiometric assay (Eurofins), JAK 3. Format: biochemical. On the set-up: unit not given here. The conditions noted are these: value close to 100 indicates low JAK activity of the compound.
Excerpt: as §3, §4

Test [8] is described as follows: Efficacy on collagen-induced rheumatoid arthritis (arthritis score). Type of test: in vivo, DBA/1 male mice. Particulars: FIG. 7. On the procedure: The experimental animals were 30 8-week-old DBA/1 male mice. […] The number of normal mice was set to five in order to minimize the number of experimental animals. The group administered with Compound (1) consisted of 5 to 6 mice, a minimal number required to obtain statistically meaningful data given the limited amount of the drug.
(§5) In order to establish a rheumatoid arthritis model, 100 µL of a mixture solution in which 2 mg/mL of chick type II collagen and 1 mg/mL of Complete Freund's Adjuvant (CFA) were mixed in a ratio of 1:1 was administered intradermally to each of the mouse tails. After 19 days, 100 µL of an emulsion in which 2 mg/mL of chick type II collagen and Incomplete Freund's Adjuvant (IFA) were mixed in a ratio of 1:1 was administered intradermally to each of the mouse tails.
The test substances of Table 23 were administered orally every day according to the drug dosing period and dosing frequency. As for the rheumatoid arthritis score (arthritis score), the score of each of the four paws was quantified according to the criteria shown in the following Table 24, and the individual scores were summed to generate the final score.
The experimental animals were 31 8-week-old DBA/1 male mice. […] The number of normal mice was set to five in order to minimize the number of experimental animals. The group administered with Compound (11) consisted of 5 mice, a minimal number required to obtain statistically meaningful data given the limited amount of the drug. Each of the remaining groups consisted of 7 mice, with two extra mice added to account for experimental error.
as §5
Oral administration was conducted daily according to the dose, dosing frequency and dosing period of Table 25. Based on the criteria shown in Table 24, rheumatoid arthritis score for the four paws were quantified and summed to generate the score.

Test [9] is described as follows: DAF-2 assay of NO scavenging activity (NO donor SNAP). Format: biochemical. The conditions noted are these: DAF-2 10 µM, SNAP 100 µM, PBS, 3 hours, 37°C.

With `C[C@@H]1CCN(C(=O)CC#N)C[C@@H]1N(C)c1ncnc2c1ccn2C(=O)N(C(=O)Nc1ccccc1N)c1ccccc1N` [Example 11, N-(2-aminophenyl)-N-((2-aminophenyl)carbamoyl)-4-(((3R,4R)-1-(2-cyanoacetyl)-4-methylpiperidin-3-yl)(methyl)amino)-7H-pyrrolo[2,3-d]pyrimidine-7-carboxamide], the activity at 10 µM in test [1] was determined as 67.7 ± 0.84%; in test [2] it was 57.6 ± 15.5%; in [4], 48.7 ± 0.01%. In addition, the “JAK 1 Activity” value in test [3] (0.1 nM) is given as 108; in [3] (1 nM), 103; in test [3] (10 nM), 105; in test [3] (100 nM), 101. Moreover, the “JAK 2 Activity” value in test [5] (0.1 nM) is 91; in test [5] (1 nM), 99; in [5] (10 nM), 89; in test [5] (100 nM), 98. In addition, the inhibition at 10 µM in test [6] is 49.7 ± 3.78%. In addition, the “JAK 3 Activity” value is 103 in test [7] (0.1 nM), 103 in test [7] (1 nM), 98 in test [7] (10 nM) and 94 in test [7] (100 nM). The “rheumatoid arthritis-alleviating efficacy compared with tofacitinib” value in [8] (20 mg/kg oral once daily (QD) vs tofacitinib 10 mg/kg BID, entire 40-day period) is on record as “alleviating efficacy comparable to that of tofacitinib”. Moreover, the “rheumatoid arthritis-alleviating efficacy (arthritis score), statistics” value in test [8] (20 mg/kg oral once daily (QD)) is “no statistical differences were verified”.

As to `C[C@@H]1CCN(C(=O)CC#N)C[C@@H]1N(C)c1ncnc2c1ccn2C(=O)N(C)CCN(C)C(=O)Nc1cc(N(C)C)ccc1N` [Example 21, N-(2-(3-(2-amino-5-(dimethylamino)phenyl)-1-methylureido)ethyl)-4-(((3R,4R)-1-(2-cyanoacetyl)-4-methylpiperidin-3-yl) (methyl)amino)-N-methyl-7H-pyrrolo[2,3-d]pyrimidine-7-carboxamide], the results for the activity at 10 µM in test [1], in test [2] and in test [4] were 52.4 ± 0.67%, 98.1 ± 0.03% and 61.2 ± 0.15%, respectively. In addition, the “JAK 1 Activity” value in test [3] (0.1 nM) was determined as 97; in [3] (1 nM) it was 105; in [3] (10 nM), 102; in [3] (100 nM) it was 85. For the same compound, the inhibition at 10 µM in [6] is 48.3 ± 3.72%. Also, the “NO Scavenging Activity (%) (Mean±SD)” value in test [9] (compound 1 µM) amounted to 2.57± 1.66%; in test [9] (compound 5 µM), 38.13 ±1.01%; in [9] (compound 10 µM), 66.27 ±0.14%.

As for `CC[C@@H]1CN(C(=O)NCC(F)(F)F)C[C@@H]1c1cnc2cnc3c(ccn3C(=O)Nc3ccc(N(C)C)cc3N)n12` [Example 30, N-(2-amino-4-(dimethylamino)phenyl)-8-((3R,4S)-4-ethyl-1-((2,2,2-trifluoroethyl)carbamoyl)pyrrolidin-3-yl)-3H-imidazo[1,2-a]pyrrolo[2,3-e]pyrazine-3-carboxamide], the activity at 10 µM was 98.1 ± 0.09% in [1], 91.5 ± 1.37% in test [2] and 91.6 ± 0.68% in test [4]. Also, the inhibition at 10 µM in test [6] stood at 55 ± 8.48%. Also, the results for the “NO Scavenging Activity (%) (Mean±SD)” value in test [9] (compound 1 µM), in test [9] (compound 5 µM) and in test [9] (compound 10 µM) were 83.14 ±2.29%, 86.44 ±1.93% and 88.19 ±1.75%, respectively.
